The target in this test is tau K18 (Homo sapiens, UniProt P10636). Briefly: intrinsic fisetin fluorescence titration. It is filed as binding.
tau K18, sequence (P10636 561-689): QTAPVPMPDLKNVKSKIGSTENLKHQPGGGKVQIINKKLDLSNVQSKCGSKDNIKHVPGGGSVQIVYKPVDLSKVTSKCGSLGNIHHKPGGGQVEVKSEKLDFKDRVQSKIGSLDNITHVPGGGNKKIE

`O=c1c(O)c(-c2ccc(O)c(O)c2)oc2cc(O)ccc12` [fisetin]: the Kd (as a rule, the equilibrium constant for the complex coming apart) was found to be 22.6 ± 1.81 µM.

The values are drawn from paper PMC9022726 (International journal of biological macromolecules, 2021).
